Results: article PMC9147192, “Small Molecule Arranged Thermal Proximity Coaggregation (smarTPCA)—A Novel Approach to Characterize Protein–Protein Interactions in Living Cells by Similar Isothermal Dose–Responses” (International Journal of Molecular Sciences, 2022)

Columns and labels:
Experiment in all cases: TPP-CCR in living HL-60 cells
Assay type in all cases: cell-based
ENDOG = biological target: T1, ENDOG (Homo sapiens, UniProt Q14249)
T1 construct: endogenous in cells; host or cells: HL-60 (ATCC CCL-240)
T1 sequence (Q14249 49-297): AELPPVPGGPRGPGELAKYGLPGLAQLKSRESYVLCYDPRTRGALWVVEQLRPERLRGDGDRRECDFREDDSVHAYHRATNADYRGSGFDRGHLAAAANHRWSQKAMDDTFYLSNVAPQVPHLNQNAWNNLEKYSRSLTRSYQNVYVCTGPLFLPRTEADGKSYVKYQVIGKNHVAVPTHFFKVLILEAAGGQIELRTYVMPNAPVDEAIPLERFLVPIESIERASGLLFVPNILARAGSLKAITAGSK

FECH = biological target: T2, FECH (Homo sapiens, UniProt P22830)
T2 construct: endogenous in cells; host or cells: HL-60 (ATCC CCL-240)
T2 sequence (P22830 55-423): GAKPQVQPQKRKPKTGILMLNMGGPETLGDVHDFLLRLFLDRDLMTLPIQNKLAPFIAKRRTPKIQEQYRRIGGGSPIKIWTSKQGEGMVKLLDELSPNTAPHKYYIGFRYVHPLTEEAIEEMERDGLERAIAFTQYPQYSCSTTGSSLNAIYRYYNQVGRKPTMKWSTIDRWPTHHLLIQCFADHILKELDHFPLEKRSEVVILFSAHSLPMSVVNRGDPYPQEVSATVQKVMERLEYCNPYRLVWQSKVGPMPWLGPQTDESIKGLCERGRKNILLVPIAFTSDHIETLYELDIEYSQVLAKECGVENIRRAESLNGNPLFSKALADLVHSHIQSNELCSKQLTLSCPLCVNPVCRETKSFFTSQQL

MIA3 = biological target: T3, MIA3 (Homo sapiens, UniProt Q5JRA6)
T3 construct: endogenous in cells; host or cells: HL-60 (ATCC CCL-240)

SMIM12 = biological target: T4, SMIM12 (Homo sapiens, UniProt Q96EX1)
T4 construct: endogenous in cells; host or cells: HL-60 (ATCC CCL-240)
T4 sequence (Q96EX1 1-92): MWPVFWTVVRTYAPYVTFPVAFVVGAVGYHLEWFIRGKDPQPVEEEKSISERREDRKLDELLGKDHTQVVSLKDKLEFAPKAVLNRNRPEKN

VAPA = biological target: T5, VAPA (Homo sapiens, UniProt Q9P0L0)
T5 construct: dose–responses (mean over replicates), derived from TPP-CCR experiments in living cells; endogenous in cells; host or cells: HL-60 cells (ATCC No. CCL-240)
T5 sequence (Q9P0L0 1-249): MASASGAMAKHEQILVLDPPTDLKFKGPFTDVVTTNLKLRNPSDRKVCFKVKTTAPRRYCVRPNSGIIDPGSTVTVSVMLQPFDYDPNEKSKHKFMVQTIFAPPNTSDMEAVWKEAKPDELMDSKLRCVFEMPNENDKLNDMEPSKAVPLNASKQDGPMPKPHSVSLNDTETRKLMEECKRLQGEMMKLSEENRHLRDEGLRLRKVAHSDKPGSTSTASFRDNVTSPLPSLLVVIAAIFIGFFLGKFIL

[1] = living HL-60 cells, […] °C, TMT-MS

T3 sequence (Q5JRA6 23-1907): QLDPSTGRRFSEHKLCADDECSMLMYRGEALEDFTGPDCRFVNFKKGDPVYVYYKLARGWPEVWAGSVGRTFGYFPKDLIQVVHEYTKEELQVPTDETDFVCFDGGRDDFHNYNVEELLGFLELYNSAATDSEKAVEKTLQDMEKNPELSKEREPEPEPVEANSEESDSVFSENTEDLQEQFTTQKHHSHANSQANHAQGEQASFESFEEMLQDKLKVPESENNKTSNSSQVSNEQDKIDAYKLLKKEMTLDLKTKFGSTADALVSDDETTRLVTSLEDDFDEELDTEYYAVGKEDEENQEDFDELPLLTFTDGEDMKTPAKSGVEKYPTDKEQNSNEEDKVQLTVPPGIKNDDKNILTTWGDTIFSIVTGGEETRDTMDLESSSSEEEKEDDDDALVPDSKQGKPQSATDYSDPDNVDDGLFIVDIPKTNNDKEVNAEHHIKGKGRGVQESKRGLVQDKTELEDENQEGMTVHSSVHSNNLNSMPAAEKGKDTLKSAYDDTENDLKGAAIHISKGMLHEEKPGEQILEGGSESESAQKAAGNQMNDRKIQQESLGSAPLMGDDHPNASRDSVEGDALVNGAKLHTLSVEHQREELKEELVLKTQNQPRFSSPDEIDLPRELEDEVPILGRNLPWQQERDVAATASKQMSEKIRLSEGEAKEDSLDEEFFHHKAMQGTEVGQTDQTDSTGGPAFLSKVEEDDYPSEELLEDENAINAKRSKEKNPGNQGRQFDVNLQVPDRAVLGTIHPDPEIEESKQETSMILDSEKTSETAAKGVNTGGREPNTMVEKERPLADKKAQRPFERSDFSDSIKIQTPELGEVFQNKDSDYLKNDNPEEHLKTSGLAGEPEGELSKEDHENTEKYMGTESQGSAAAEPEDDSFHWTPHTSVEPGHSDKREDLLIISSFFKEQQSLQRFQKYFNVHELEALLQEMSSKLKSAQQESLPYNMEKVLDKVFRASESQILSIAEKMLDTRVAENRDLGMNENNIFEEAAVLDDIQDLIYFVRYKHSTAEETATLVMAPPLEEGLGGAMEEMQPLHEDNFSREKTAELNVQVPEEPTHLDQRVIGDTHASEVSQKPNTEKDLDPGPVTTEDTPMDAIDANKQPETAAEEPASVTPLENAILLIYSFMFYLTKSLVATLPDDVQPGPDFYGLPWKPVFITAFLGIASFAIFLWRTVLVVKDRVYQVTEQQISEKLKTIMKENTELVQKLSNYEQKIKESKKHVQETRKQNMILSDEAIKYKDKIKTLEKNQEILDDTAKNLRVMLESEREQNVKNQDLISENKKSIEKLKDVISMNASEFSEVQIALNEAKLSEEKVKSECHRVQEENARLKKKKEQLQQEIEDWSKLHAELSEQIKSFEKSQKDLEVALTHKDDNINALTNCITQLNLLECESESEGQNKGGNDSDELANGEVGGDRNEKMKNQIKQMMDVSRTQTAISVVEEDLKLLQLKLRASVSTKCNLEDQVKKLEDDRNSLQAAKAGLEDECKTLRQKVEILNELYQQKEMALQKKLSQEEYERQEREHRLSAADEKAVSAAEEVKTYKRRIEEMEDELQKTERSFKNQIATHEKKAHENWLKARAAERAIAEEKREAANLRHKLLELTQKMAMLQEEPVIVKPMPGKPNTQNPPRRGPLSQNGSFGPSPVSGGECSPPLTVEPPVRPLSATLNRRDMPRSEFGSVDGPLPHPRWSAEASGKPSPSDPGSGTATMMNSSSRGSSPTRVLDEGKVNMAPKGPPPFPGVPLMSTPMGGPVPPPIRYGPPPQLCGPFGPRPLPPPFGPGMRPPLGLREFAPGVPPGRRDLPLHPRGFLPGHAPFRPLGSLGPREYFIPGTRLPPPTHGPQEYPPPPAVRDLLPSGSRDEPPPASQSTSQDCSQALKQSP

## Cc1cnc(Nc2ccc(F)cc2Cl)nc1-c1c[nH]c(C(=O)N[C@H](CO)c2cccc(Cl)c2)c1 [ERK 11e]
ENDOG; TPP-CCR, living cells, ENDOG
  Hill slope: 0.40
ENDOG; [1]
  Hill slope (ENDOG): 0.40
ENDOG; living HL-60 cells, […] °C, TMT-MS, read-out: pEC50 (ENDOG) (converted)
  EC50: 2.75 nM
FECH; TPP-CCR, living cells, FECH
  Hill slope: 0.38
FECH; [1]
  EC50: 631 nM
  Hill slope (FECH): 0.38
MIA3; TPP-CCR, living cells, MIA3
  Hill slope: 0.98
MIA3; [1]
  Hill slope (MIA3): 0.98
MIA3; living HL-60 cells, […] °C, TMT-MS, read-out: pEC50 (MIA3) (converted)
  EC50: 3390 nM
SMIM12; TPP-CCR, living cells, SMIM12
  Hill slope: 0.47
SMIM12; [1]
  Hill slope (SMIM12): 0.47
SMIM12; living HL-60 cells, […] °C, TMT-MS, read-out: pEC50 (SMIM12) (converted)
  EC50: 427 nM
VAPA; TPP-CCR, living cells, VAPA
  Hill slope: 0.66
VAPA; [1]
  EC50: 1550 nM
  Hill slope (VAPA): 0.66
